Read-outs that look alike come from different tables or passages of the source.
Experiments:
[1] = test system: C. fragariae isolate CF-75; experiment: Detached strawberry leaf assay; assay type: in vivo, Colletotrichum fragariae; conditions: detached strawberry leaves (cultivar Chandler), five days after application
Text: Strawberry plants of the cultivar Chandler were maintained in a warm greenhouse under conditions suitable for optimum vegetative growth. The youngest fully expanded leaf with the entire petiole from each plant was collected. The petiole of each leaf was inserted into a small test tube (10×4 mm) and filled with sterile distilled water. The left leaflet of each leaf was inoculated with C. fragariae isolate CF-75 (1.5×10^6 conidia/ml) using a hand pump sprayer. The inoculated leaves were placed in a dew chamber and incubated overnight at 30° C. and 100% relative humidity, removed from the dew chamber and allowed to dry. The test compound was applied using a chromatography sprayer until the upper surface of each leaflet was coated. After allowing the leaves to air dry for 2 hours, the right leaflet of each leaf was inoculated with C. fragariae isolate CF-75. The leaves were incubated in the dew chamber at 30° C. and 100% relative humidity for 48 hours. The leaves were then removed from the dew chamber and held in a moist chamber for 3 days (total of five days since test compounds were applied). The number of lesions on each leaflet were then counted.

C. fragariae = experiment: 96-well microtiter plate assay, fungal growth inhibition; assay type: cell-based, Colletotrichum fragariae; conditions: Colletotrichum fragariae, read-out: Percent inhibition−Percent Stimulation±SEM
Text: (§1) Pathogen production. Isolates of Colletotrichum acutatum Simmonds, Colletotrichum fragariae Brooks, and Colletotrichum gloeosporioides (Penz.) Penz. & Sacc. in Penz. were obtained from B. J. Smith, USDA, ARS, Small Fruit Research Station, Poplarville, Miss. Colletotrichum fragariae (isolate CF63), C. acutatum (isolate CAGoff), and C. gloeosporioides (isolate CG162) were used for all pathogen and bioautography studies. Isolate CF63 is one of the most virulent isolates at infecting strawberry plants and inducing both crown and fruit rot (Smith and Black, 1990). CF63, CAGoff, and CG162 were used as standard test isolates because of our extensive knowledge of these isolates and their known fungicide sensitivity profiles in both bioautography and microtiter formats. The three Colletotrichum species were isolated from strawberry (Fragaria x ananassa Duchesne). Botrytis cinerea Pers.: Fr, was isolated from commercial grape (Vitis vinifera L.) and Fusarium oxysporum Schlechtend: Fr from orchid (Cynoches sp.). Phomopsis viticola (Sacc.) and P. obscurans (Ellis & Everh.) Sutton were from Mike A. Ellis, Ohio State University, Wooster, Ohio. Fungi were grown on potato-dextrose agar (PDA, Difco, Detroit, Mich.) in 9 cm petri dishes and incubated in a growth chamber at 24±2° C. and under cool-white fluorescent lights ([…]·m^−2·sec^−1 light) with 12 hour photoperiod.
(§2) Inoculum preparation. Conidia were harvested from 7-10 day-old cultures by flooding plates with 5 mL of sterile distilled water and dislodging conidia by softly brushing the colonies with an L-shaped glass rod. Conidial suspensions were filtered through sterile miracloth (Calbiochem-Novabiochem Corp., La Jolla, Calif.) to remove mycelia. Conidia concentrations were determined photometrically, from a standard curve based on the percent of transmittance (% T) at 625 nm and suspensions were then adjusted with sterile distilled water to a concentration of 1.0×10^6 conidia/mL.
(§3) Microtiter assay. A standardized 96-well microtiter plate assay developed for discovery of natural product fungicidal agents was used to evaluate naturally occurring antifungal agents from Macaranga monanara. A 96-well microtiter assay was used to determine sensitivity of B. cinerea, C. acutatum, C. fragariae, C. gloeosporioides, F. oxysporum, Phomopsis viticola, and P. obscurans to the various antifungal agents in comparison with known fungicidal standards. Vinclozolin, captan, and thiabendazole, which represent three different modes of action, were used as standards in this experiment. Each fungus was challenged in a dose-response format using test compounds where the final treatment concentrations were 0.3, 3.0 and 30.0 μM. Microtiter plates (Nunc MicroWell, untreated; Roskilde, Denmark) were covered with a plastic lid and incubated in a growth chamber as described previously for fungal growth. Growth was then evaluated by measuring absorbance of each well at 620 nm using a microplate photometer (Packard Spectra Count, Packard Instrument Co., Downers Grove, Ill.). Microtiter plates (Nunc MicroWell, untreated; Roskilde, Denmark) were covered with a plastic lid and incubated in a growth chamber at 24±1° C. and 12 hour photoperiod under 60±5 μmol light. Growth was then evaluated by measuring absorbance of each well at 620 nm using a microplate photometer (Packard Spectra Count, Packard Instrument Co., Downers Grove, Ill.).
(§4) Microbioassy Experimental Design. Chemical sensitivity each of B. cinerea, C. acutatum, C. fragariae, C. gloeosporiodes, F. oxysporum, Phomopsis viticola, and P. obscurans was evaluated using 96-well plate microbioassay format. Each chemical was evaluated in duplicate at each dose (0.3, 3.0 and 30.0 μM). […]

C. acutatum = experiment: as above; assay type: cell-based, Colletotrichum acutatum; conditions: Colletotrichum acutatum, read-out: Percent inhibition−Percent Stimulation±SEM
Text: as §1, §2, §3, §4

F. oxysporum = experiment: as above; assay type: cell-based, Fusarium oxysporum; conditions: Fusarium oxysporum, read-out: Percent inhibition−Percent Stimulation±SEM
Text: as §1, §2, §3, §4

B. cinerea = experiment: as above; assay type: cell-based, Botrytis cinerea; conditions: Botrytis cinerea, read-out: Percent inhibition−Percent Stimulation±SEM
Text: as §1, §2, §3, §4

C. gloeosporioides = experiment: as above; assay type: cell-based, Colletotrichum gloeosporioides; conditions: Colletotrichum gloeosporioides, read-out: Percent inhibition−Percent Stimulation±SEM
Text: as §1, §2, §3, §4

## CO/C=C(/C(=O)OC)c1ccccc1Oc1cc(Oc2ccccc2C#N)ncn1 [Azoxystrobin]
[1]; Concentration 625 (unit not given)
  Disease severity scores (# disease lesions): 4.46
[1]; Concentration 1250 (unit not given)
  Disease severity scores (# disease lesions): 1.58
[1]; Concentration 2500 (unit not given)
  Disease severity scores (# disease lesions): 3.54

## Cc1cc(C2CC2)nc(Nc2ccccc2)n1 [Cyprodinil]
C. fragariae; 48 h
  inhibition at 0.3 µM: 98 ± 1.6%
  inhibition at 3 µM: 91.3 ± 1.3%
  inhibition at 30 µM: 91.1 ± 7%
C. fragariae; 72 h
  inhibition at 0.3 µM: 82.6 ± 6.2%
  inhibition at 3 µM: 83.7 ± 1.8%
  inhibition at 30 µM: 93 ± 0.4%
C. acutatum; 48 h
  inhibition at 0.3 µM: 99.8 ± 0.2%
  inhibition at 3 µM: 98.6 ± 0.6%
  inhibition at 30 µM: 98.7 ± 0.5%
C. acutatum; 72 h
  inhibition at 0.3 µM: 85.1 ± 4.3%
  inhibition at 3 µM: 99.3 ± 2.2%
  inhibition at 30 µM: 97.9 ± 0.3%
F. oxysporum; 48 h
  inhibition at 0.3 µM: -5.4 ± 4.8%
  inhibition at 3 µM: 16.9 ± 5.5%
  inhibition at 30 µM: 69.1 ± 4.6%
F. oxysporum; 72 h
  inhibition at 0.3 µM: -5.1 ± 2.8%
  inhibition at 3 µM: 6.2 ± 2.5%
  inhibition at 30 µM: 31.3 ± 4.9%
B. cinerea; 48 h
  inhibition at 0.3 µM: 75.3 ± 21%
  inhibition at 3 µM: 29.4 ± 31.3%
  inhibition at 30 µM: 2.5 ± 31.6%
B. cinerea; 72 h
  inhibition at 0.3 µM: 61.3 ± 24.4%
  inhibition at 3 µM: 51.3 ± 30%
  inhibition at 30 µM: 27.3 ± 28.2%
C. gloeosporioides; 48 h
  inhibition at 0.3 µM: 84.3 ± 2.3%
  inhibition at 3 µM: 91.3 ± 1.3%
  inhibition at 30 µM: 91.1 ± 7%
C. gloeosporioides; 72 h
  inhibition at 0.3 µM: 55.7 ± 4.6%
  inhibition at 3 µM: 83.7 ± 1.8%
  inhibition at 30 µM: 93 ± 0.4%

Reference: patent publication US6844353B2, “Fungicidal properties of sampangine and its analogs to agriculturally important fungal plant pathogens” (The United States of America as represented by the …, priority 2003, dated 2005)
